Experimental data published in paper PMC6934184, “Selective DNA-PKcs inhibition extends the therapeutic index of localized radiotherapy and chemotherapy” (The Journal of Clinical Investigation, 2019).

Biological target: T1, CHEK2 (CHK2) (Homo sapiens, UniProt O96017)
T1 construct: purchased Thermo Fisher Scientific (Life Technologies) SelectScreen
Assay: SelectScreen Z'LYTE
Assay type: biochemical
Outline: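 Compound tested in SelectScreen activity assays, Z'LYTE for CSF1R, CDK1/cyclin B and MAP2K6 and Adapta for CAMK1. ATP for CAMK1 was listed as 10, and Km app was used for CSF1R. Results are expressed in percent.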

T1 sequence (O96017 whole entry): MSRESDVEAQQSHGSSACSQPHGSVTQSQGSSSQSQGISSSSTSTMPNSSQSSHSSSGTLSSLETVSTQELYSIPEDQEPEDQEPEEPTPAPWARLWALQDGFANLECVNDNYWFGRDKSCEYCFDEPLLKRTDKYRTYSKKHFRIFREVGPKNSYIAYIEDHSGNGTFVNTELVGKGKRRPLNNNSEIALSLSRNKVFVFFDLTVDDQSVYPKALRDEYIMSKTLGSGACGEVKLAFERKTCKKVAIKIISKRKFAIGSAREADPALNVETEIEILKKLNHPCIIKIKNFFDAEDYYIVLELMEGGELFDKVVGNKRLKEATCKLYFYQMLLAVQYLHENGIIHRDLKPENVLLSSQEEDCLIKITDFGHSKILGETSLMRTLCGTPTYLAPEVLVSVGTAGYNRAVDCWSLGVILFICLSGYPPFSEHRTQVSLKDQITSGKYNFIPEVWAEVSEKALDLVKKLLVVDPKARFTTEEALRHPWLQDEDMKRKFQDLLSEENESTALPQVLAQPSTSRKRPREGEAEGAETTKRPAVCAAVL

CN(C(=O)CN1CCOCC1)c1ccc2sc3c(-c4cccc5c(=O)cc(N6CC7CCC(C6)O7)oc45)cccc3c2c1 [NU5455]
inhibition at 1 µM: -11.7%
